4 molecules from BindingDB's records for doi:10.1046/j.1472-8206.2002.00076.x (Shinshu University, 2002) can be followed below.

One may read the Ki as a dissociation constant, usually derived from enzyme kinetics or from competition with a known ligand. A low value points to a stronger hold on the target.

Structures are written as SMILES. Side chains are listed from the residue outwards. Peptide text beside a SMILES is read from it. * marks the point of attachment. Nicotinoyl = O=C(c1cccnc1)*; Cbz = O=C(OCc1ccccc1)* Bounds are passed on as bounds.

The target in assay [1] is T1, Type-1 angiotensin II receptor B (Rattus norvegicus, UniProt P29089).
T1 sequence (P29089 whole entry): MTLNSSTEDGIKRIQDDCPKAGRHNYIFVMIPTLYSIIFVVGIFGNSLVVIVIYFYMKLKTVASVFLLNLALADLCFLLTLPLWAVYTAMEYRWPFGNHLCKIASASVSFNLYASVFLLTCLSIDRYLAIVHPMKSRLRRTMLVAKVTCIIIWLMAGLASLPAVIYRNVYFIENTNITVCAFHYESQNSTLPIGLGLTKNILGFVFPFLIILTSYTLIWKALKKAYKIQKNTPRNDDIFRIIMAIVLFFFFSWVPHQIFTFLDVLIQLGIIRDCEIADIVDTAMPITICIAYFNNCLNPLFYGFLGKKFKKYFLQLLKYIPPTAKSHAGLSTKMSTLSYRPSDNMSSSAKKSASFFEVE

The target of assay [2] is T2, Type-1 angiotensin II receptor A (Rattus norvegicus, UniProt P25095).
T2 sequence (P25095 whole entry): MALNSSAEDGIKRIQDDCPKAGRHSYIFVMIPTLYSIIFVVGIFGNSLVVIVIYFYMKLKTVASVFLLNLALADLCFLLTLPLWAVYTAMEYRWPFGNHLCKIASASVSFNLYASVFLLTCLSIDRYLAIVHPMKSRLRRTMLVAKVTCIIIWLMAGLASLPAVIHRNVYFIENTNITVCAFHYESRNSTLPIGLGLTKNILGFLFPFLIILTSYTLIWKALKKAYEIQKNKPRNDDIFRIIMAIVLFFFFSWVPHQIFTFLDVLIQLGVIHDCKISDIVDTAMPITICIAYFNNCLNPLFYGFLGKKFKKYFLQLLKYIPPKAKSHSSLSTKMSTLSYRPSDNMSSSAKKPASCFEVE

Assay [3] deals with T3, Type-2 angiotensin II receptor (Rattus norvegicus, UniProt P35351).
T3 sequence (P35351 whole entry): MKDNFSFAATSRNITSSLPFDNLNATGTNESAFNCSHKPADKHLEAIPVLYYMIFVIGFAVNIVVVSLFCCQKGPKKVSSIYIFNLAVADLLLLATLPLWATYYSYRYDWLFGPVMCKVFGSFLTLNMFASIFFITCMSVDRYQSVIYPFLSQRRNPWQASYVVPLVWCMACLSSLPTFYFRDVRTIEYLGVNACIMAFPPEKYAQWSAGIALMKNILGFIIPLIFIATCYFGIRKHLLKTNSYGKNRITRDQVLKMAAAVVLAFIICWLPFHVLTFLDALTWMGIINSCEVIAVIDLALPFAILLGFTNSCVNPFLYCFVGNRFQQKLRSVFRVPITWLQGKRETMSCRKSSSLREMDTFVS

For assay [4], the target named is T4, Type-1 angiotensin II receptor (Homo sapiens, UniProt P30556).
T4 sequence (P30556 whole entry): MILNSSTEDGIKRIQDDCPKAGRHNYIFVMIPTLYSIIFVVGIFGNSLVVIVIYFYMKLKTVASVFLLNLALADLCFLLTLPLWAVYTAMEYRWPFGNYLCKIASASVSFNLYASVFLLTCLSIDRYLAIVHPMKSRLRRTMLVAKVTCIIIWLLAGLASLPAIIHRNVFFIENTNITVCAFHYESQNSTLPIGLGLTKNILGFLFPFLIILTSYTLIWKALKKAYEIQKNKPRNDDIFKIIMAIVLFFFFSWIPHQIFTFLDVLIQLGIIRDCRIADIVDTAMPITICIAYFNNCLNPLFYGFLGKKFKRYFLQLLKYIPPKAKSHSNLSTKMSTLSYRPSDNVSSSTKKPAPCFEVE

As to `CCc1nn(Cc2ccc(-c3ccccc3-c3nnn[nH]3)cc2)c(=NC(=O)C2=C(C(=O)O)CCC2)s1` [KRH-594], the Ki in assay [1] came out at 0.67 nM; in assay [2], 1.02 nM; in assay [3], 9360 nM; in assay [4], 1.24 nM.
For `CCOc1nc2cccc(C(=O)O)c2n1Cc1ccc(-c2ccccc2-c2nnn[nH]2)cc1` the same measures were 0.12 nM, 0.12 nM, more than 10000 nM and 0.17 nM.
The molecule `CC[C@H](C)[C@H](NC(=O)[C@@H]1CCCN1C(=O)[C@H](Cc1c[nH]cn1)NC(=O)[C@H](CCCCNC(=O)[C@H](CCCN=C(N)N)NC(=O)OCc1ccccc1)NC(=O)[C@H](Cc1ccc(O)cc1)NC(=O)c1cccnc1)C(=O)O` [NSC_123794] (Nicotinoyl-YK([Arg-Cbz])HPI-OH) yielded an inhibitory constant (Ki) in assay [3] of 0.37 nM.
On to `CCCCc1nc(Cl)c(C(=O)O)n1Cc1ccc(-c2ccccc2-c2nn[nH]n2)cc1` [2-Butyl-5-chloro-3-[2'-(1H-tetrazol-5-yl)-biphenyl-4-ylmethyl]-3H-imidazole-4-carboxylic acid], for which the Ki was 0.57 nM in assay [2] and more than 10000 nM in assay [3].
